Experimental data: patent US20130072470A1 (ABBVIE INC., priority 2011, published 2013)

These molecules were tested against T1, Jak3 enzyme (aa 811-1103) (Homo sapiens, UniProt P52333) (assay: In vitro Jak3 kinase activity measured by time-resolved fluorescence resonance energy transfer (trFRET)). Conditions: ATP 0.001 mM, Table B.
T1 construct: Jak3 enzyme (aa 811-1103); expressed in SF9 cells as a GST fusion; GST; made in house; host or cells: SF9 insect cells
Assay type: biochemical
Outline: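 GST-tagged Jak3 (aa 811-1103, Sf9-expressed; 3 nM) with 2 μM biotin-peptide substrate and 1 μM ATP in MOPSO pH 6.5 with Mg2+/Mn2+, about 60 min at rt. EDTA-quenched; Eu anti-phosphotyrosine/streptavidin-APC trFRET read at 665 nm; IC50 from signal in linear range.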

T1 sequence (P52333 811-1103): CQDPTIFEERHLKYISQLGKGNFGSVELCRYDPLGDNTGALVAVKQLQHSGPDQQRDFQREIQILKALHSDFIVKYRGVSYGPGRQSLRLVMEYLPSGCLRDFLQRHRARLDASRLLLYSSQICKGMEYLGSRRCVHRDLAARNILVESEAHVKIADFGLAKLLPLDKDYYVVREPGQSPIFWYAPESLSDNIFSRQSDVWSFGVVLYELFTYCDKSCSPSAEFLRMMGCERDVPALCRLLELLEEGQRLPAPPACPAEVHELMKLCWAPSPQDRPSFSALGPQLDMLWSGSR

Row | SMILES | IC50 [nM]
1 | CC[C@@H]1C[C@H](NC(=O)c2noc3c2CCCC3)C[C@@H]1c1nnc2cnc3[nH]ccc3n12 [compound 72, N-((1S,3R,4S)-3-ethyl-4-(6H-pyrrolo[2,3-e][1,2,4]triazolo[4,3-a]pyrazin-1-yl)cyclopentyl)-4,5,6,7-tetrahydrobenzo[d]isoxazole-3-carboxamide] | 1000 to 10000
2 | CC[C@@H]1C[C@H](NC(=O)c2cc(-c3ccco3)on2)C[C@@H]1c1nnc2cnc3[nH]ccc3n12 [compound 73, N-((1S,3R,4S)-3-ethyl-4-(6H-pyrrolo[2,3-e][1,2,4]triazolo[4,3-a]pyrazin-1-yl)cyclopentyl)-5-(furan-2-yl)isoxazole-3-carboxamide] | < 1000
3 | CCc1ocnc1C(=O)N[C@H]1C[C@@H](CC)[C@@H](c2nnc3cnc4[nH]ccc4n23)C1 [compound 74, 5-ethyl-N-((1S,3R,4S)-3-ethyl-4-(6H-pyrrolo[2,3-e][1,2,4]triazolo[4,3-a]pyrazin-1-yl)cyclopentyl)oxazole-4-carboxamide] | 1000 to 10000
4 | CC[C@@H]1C[C@H](NC(=O)CSc2nnc(C)o2)C[C@@H]1c1nnc2cnc3[nH]ccc3n12 [compound 75, N-((1S,3R,4S)-3-ethyl-4-(6H-pyrrolo[2,3-e][1,2,4]triazolo[4,3-a]pyrazin-1-yl)cyclopentyl)-2-(5-methyl-1,3,4-oxadiazol-2-ylthio)acetamide] | 1000 to 10000
5 | CCc1cc(C(=O)N[C@H]2C[C@@H](CC)[C@@H](c3nnc4cnc5[nH]ccc5n34)C2)no1 [compound 76, 5-ethyl-N-((1S,3R,4S)-3-ethyl-4-(6H-pyrrolo[2,3-e][1,2,4]triazolo[4,3-a]pyrazin-1-yl)cyclopentyl)isoxazole-3-carboxamide] | 1000 to 10000
6 | CC[C@@H]1C[C@H](NC(=O)CCC2CCCCC2)C[C@@H]1c1nnc2cnc3[nH]ccc3n12 [compound 77, 3-cyclohexyl-N-((1S,3R,4S)-3-ethyl-4-(6H-pyrrolo[2,3-e][1,2,4]triazolo[4,3-a]pyrazin-1-yl)cyclopentyl)propanamide] | 1000 to 10000
7 | CC[C@@H]1C[C@H](NC(=O)c2ccco2)C[C@@H]1c1nnc2cnc3[nH]ccc3n12 [compound 78, N-((1S,3R,4S)-3-ethyl-4-(6H-pyrrolo[2,3-e][1,2,4]triazolo[4,3-a]pyrazin-1-yl)cyclopentyl)furan-2-carboxamide] | 1000 to 10000
8 | CC[C@@H]1C[C@H](NC(=O)c2occc2C)C[C@@H]1c1nnc2cnc3[nH]ccc3n12 [compound 79, N-((1S,3R,4S)-3-ethyl-4-(6H-pyrrolo[2,3-e][1,2,4]triazolo[4,3-a]pyrazin-1-yl)cyclopentyl)-3-methylfuran-2-carboxamide] | 1000 to 10000
9 | CC[C@@H]1C[C@H](NC(=O)CCC2CCC(=O)N2)C[C@@H]1c1nnc2cnc3[nH]ccc3n12 (stereo partly drawn) [compound 80, N-((1S,3R,4S)-3-ethyl-4-(6H-pyrrolo[2,3-e][1,2,4]triazolo[4,3-a]pyrazin-1-yl)cyclopentyl)-3-(5-oxopyrrolidin-2-yl)propanamide] | 1000 to 10000
10 | CCc1cc(C(=O)N[C@H]2C[C@@H](CC)[C@@H](c3nnc4cnc5[nH]ccc5n34)C2)on1 [compound 81, 3-ethyl-N-((1S,3R,4S)-3-ethyl-4-(6H-pyrrolo[2,3-e][1,2,4]triazolo[4,3-a]pyrazin-1-yl)cyclopentyl)isoxazole-5-carboxamide] | 1000 to 10000
11 | CC[C@@H]1C[C@H](NC(=O)c2cnco2)C[C@@H]1c1nnc2cnc3[nH]ccc3n12 [compound 82, N-((1S,3R,4S)-3-ethyl-4-(6H-pyrrolo[2,3-e][1,2,4]triazolo[4,3-a]pyrazin-1-yl)cyclopentyl)oxazole-5-carboxamide] | 1000 to 10000
